These results are taken from patent US11667961B2, “Intercalating fluorescent dyes for labelling nucleic acids and preparation method thereof” (Bioacts Corporation, priority 2020, dated 2023).

Entries after “also recorded” stand apart in the source; their conditions may differ.

The test system of data set [1] is double-stranded DNA (cDNA extracted from HeLa cells, b-actin primer). In words: Compound analysis through real-time PCR by intercalating method (double-stranded DNA binding dyes). The format is biochemical. Particulars: for fluorescence signal / fluorescence intensity during DNA synthesis (FIG. 1): 1 uL of 200 uM dye in 20 uL reaction, fluorescence wavelength of 497 nm detected; for Cq value (FIG. 3): 45 cycles, HeLa cDNA template. As for the experimental part: Compounds 8, 9, 10, 15, 16, and 17 were dissolved in dimethyl sulfoxide to prepare 5 mM of a stock solution. The prepared stock solution was diluted in a Tris-EDTA buffer (pH 7.5) and prepared at a concentration of 200 uM.
For Reference material 1, 10,000× of the stock solution was diluted to a concentration of 20× through a Tris-EDTA buffer (pH 7.5). For Reference material 2, 20,000× of the stock solution was diluted to a concentration of 20× through a Tris-EDTA buffer (pH 7.5).
Reference materials 1 (Evagreen) and 2 (Invitrogen Sybr Green) and Compounds 8, 9, 10, 15, 16, and 17 were compared and verified by an intercalating method using a double-stranded DNA binding dyes through real-time PCR. cDNA extracted from HeLa cells was used, and b-actin (Forward 5′-CATCGAGCACGGCATCGTCA-3′, Reverse 5′-TAGCACAGCCTGGATAGCAAC-3′) was used as a primer. Real-time PCR reaction was performed using a CFX96 touch real-time PCR detection system (BIO-RAD). The PCR mixture consisted of a total 20 uL of reaction solution containing 1 uL of a forward primer, 1 uL of a reverse primer, 10 uL of a PCR master mix (TAKARA), 1 uL of a reference material and each compound (Compounds 8, 9, 10, 15, 16, 17), and 1 uL of template cDNA. PCR conditions were as follows: (a) In a pre-denaturing step, 1 minute at 95° C. (b) 45 cycles are configured as a cycle consisting of at 95° C. for 15 seconds, 58° C. for 30 seconds and 72° C. for 30 seconds, and a fluorescence wavelength of 497 nm was detected in a cycle of 30 seconds at 72° C.
For orientation: In qPCR the cycle at which signal appears reflects the starting amount.

Data set [2] can be described thus: Stability analysis: storage in incubator at 60° C. for 3 days, then real-time PCR fluorescence. The format is physicochemical. Particulars: for change in fluorescence intensity after reaction at 60° C. for 3 days (FIGS. 11-14): stored in incubator at 60° C. for 3 days, real-time PCR for each template concentration. As for the experimental part: Stability analysis was performed by storing Reference materials 1 (Evagreen) and 2 (Invitrogen Sybr Green) and Compound 16 in an incubator at 60° C. The three materials were stored in an incubator at 60° C. for 3 days, and the fluorescence signals for each template concentration were analyzed by real-time PCR analysis as in (1) above, and the PCR product was electrophoresed to analyze whether normal DNA synthesis was achieved. After real-time-PCR, synthetic DNA and a 6× Loading dye (BioActs) were mixed, and then electrophoresis was performed for 35 minutes on a 2% agarose gel (Simga-aldrich).

On to `C=CS(=O)(=O)CCNC(=O)CCCN(C)C1=C/C(=C\c2oc3ccccc3[n+]2C)c2ccccc2N1c1ccccc1` [Compound 8], for which, in data set [1], the “fluorescence signal / fluorescence intensity during DNA synthesis (FIG. 1)” value is given as “not strongly observed” and the “Cq value (FIG. 3)” value is given as “not much confirmed”.

Consider `CN(C)CCCNC(=O)CCCN(C)C1=C/C(=C\c2oc3ccccc3[n+]2C)c2ccccc2N1c1ccccc1` [Compound 9], for which, in data set [1], the “fluorescence signal / fluorescence intensity during DNA synthesis (FIG. 1)” value was “not strongly observed” and the “Cq value (FIG. 3)” value was “not much confirmed”.

With `CCCCCCCCNC(=O)CCCN(C)C1=C/C(=C\c2oc3ccccc3[n+]2C)c2ccccc2N1c1ccccc1` [Compound 10], in data set [1], the “fluorescence signal / fluorescence intensity during DNA synthesis (FIG. 1)” value was “not strongly observed” and the “Cq value (FIG. 3)” value was “not much confirmed”.

As for `C=CS(=O)(=O)CCNC(=O)CCCN(C)C1=C/C(=C\c2sc3ccccc3[n+]2C)c2ccccc2N1c1ccccc1` [Compound 15], the “fluorescence signal / fluorescence intensity during DNA synthesis (FIG. 1)” value in data set [1] is “emit visible fluorescence; also recorded: not much strong”.

Turning to `CN(C)CCCNC(=O)CCCN(C)C1=C/C(=C\c2sc3ccccc3[n+]2C)c2ccccc2N1c1ccccc1` [Compound 16], in data set [1], the “fluorescence signal / fluorescence intensity during DNA synthesis (FIG. 1)” value is listed as “emit visible fluorescence; also recorded: very strong” and the “Cq value (FIG. 3)” value was “fastest”. In addition, the “Cq value relative to Reference material 1 (FIG. 6)” value in data set [1] (compared with Evagreen) is “faster than that of Reference material 1”. Also, in data set [1] (compared with Evagreen and Sybr Green at 20×), the “fluorescence intensity relative to Reference materials 1 and 2 (FIG. 4)” value is recorded as “two times higher”. Also, in data set [2] (60° C. for 3 days), the “stability compared with Reference material 2” value is given as “more stable material than Reference material 2”. The “change in fluorescence intensity after reaction at 60° C. for 3 days (FIGS. 11-14)” value in data set [2] is recorded as “no significant change”.

Consider `CCCCCCCCNC(=O)CCCN(C)C1=C/C(=C\c2oc3ccccc3[n+]2C)c2ccccc2N1c1ccccc1` [Compound 17], for which, in data set [1], the “fluorescence signal / fluorescence intensity during DNA synthesis (FIG. 1)” value was “emit visible fluorescence; also recorded: not much strong” and the “Cq value (FIG. 3)” value was “hardly confirmed”.

Turning to `CCCN(CCCN(C)C)c1cc(/C=C2/Sc3ccccc3N2C)c2ccccc2[n+]1-c1ccccc1` [Reference material 2, reference compound], the “change in fluorescence intensity after reaction at 60° C. for 3 days (FIGS. 11-14)” value in data set [2] is given as “decreased by about half”.
